Test [1] deals with ELAM (E-selectin) expression in endothelial cells. In words: Cell-ELAM assay. The format is cell-based. The note with it: 10 μg/ml LPS and 100 pg/ml IL-1β, 6 hours. The source says:
In vitro cell-based assays for inflammation are well known in the art, for example e-selectin (also named Endothelial Leukocyte Adhesion Molecule or ELAM) or C-reactive protein (CRP). The ELAM assay measures in vitro activity of the test compounds in reducing expression of ELAM in activated endothelial cells. Briefly, endothelial cells are […] by adding known activators such as lipopolysaccharides, TNF or IL-1, alone or in some combination. Activated cells produce ELAM, which can be measured using, for example, an E-selectin monoclonal antibody-based ELISA assay. Similarly the CRP assay measures in vitro activity of test compounds in reducing expression of CRP in Human Hep3B epithelial cells. The activated cells produce CRP, which can be measured with a CRP ELISA assay.
Endothelial-Leukocyte Adhesion Molecule (ELAM), also known as E-selectin, was expressed on the surface of endothelial cells. In this assay, lipopolysaccharide (LPS) and IL-1β were used to stimulate the expression of ELAM; test agents were tested for their abilities to reduce this expression, in accordance with studies showing that reduction of leukocyte adhesion to endothelial cell surface was associated with decreased cellular damage (e.g., Takada, M., Et al., Transplantation 64: 1520-25, 1997; Steinberg, J. B., et al., J. Heart Lung Trans. 13:306-313, 1994).
Endothelial cells may be selected from any of a number of sources and cultured according to methods known in the art; including, for example, coronary artery endothelial cells, human brain microvascular endothelial cells (HBMEC; Hess, D. C., et al., Neurosci. Lett. 213(1): 37-40, 1996), or lung endothelial cells. Cells were conveniently cultured in 96-well plates. Cells were stimulated by adding a solution to each well containing 10 μg/ml LPS and 100 pg/ml IL-1β for 6 hours in the presence of test agent (specific concentrations and time may be adjusted depending on the cell type) Treatment buffer was removed and replaced with pre-warmed Fixing Solution® (100 μl/well) for 25 minutes at room temperature. Cells were then washed 3×, then incubated with Blocking Buffer (PBS+2% FBS) for 25 minutes at room temperature. Blocking Buffer containing Monoclonal E-Selectin Antibody (1:750, Sigma Catalog # S-9555) was added to each well. Plates were sealed and stored at 4° overnight. Plates were washed 4× with 160 μL Blocking Buffer per well. Second Antibody-HRP diluted 1:5000 in Blocking Buffer was then added (100 μL/well), and plates were incubated at room temperature (protected from light) for two hours. Plates were then washed 4× with Blocking Buffer before addition of 100 μL of ABTS Substrate solution at room temperature (Zymed, Catalog # 00-2024). Wells were allowed to develop for 35 minutes, before measurement at 402 nm in a Fluoroskan® Reader with shake program for 10 seconds. Positive results were recorded as a decrease in ELAM concentration in tested wells, as compared to control wells.

Test [2] concerns dopaminergic neuronal cell line. In words: High glutamate-induced oxidative stress assay (HGOS). The test is classed as cell-based. The note with it: Mus musculus; 30 mM glutamate, 16 hrs; read-out: EC50, protection against HGOS cell injury and cell death. The procedure, abridged:
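Mouse dopaminergic cells (passage ≤ p11) were grown 72 h at 33 °C, washed in HBSS, then exposed 16 h at 37 °C to compounds in DMEM-No Glu with 1 mM glucose and 30 mM glutamate. Surviving cells were stained 30 min with 5 μM Cell Tracker Green and fluorescence read at 485/538 nm.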

Take `CC(C)CSCCCC1(C)CCc2cc(O)c3c(c2O1)C1CCC3C1` (stereo not drawn) [2-(3-isobutylsulfanyl-propyl)-2-methyl-3,4,7,8,9,10-hexahydro-7,10-methano-2H-benzo[h]chromen-6-ol]: the EC50 (as a rule, the concentration at which the effect is half-maximal) in test [1] was at most 30 µM; in test [2], at most 1 µM.

As for `CC(C)=CCc1c(O)c2c(c3c1CCC(C)(C)O3)C1CCC2C1` (stereo not drawn) [2,2-Dimethyl-5-(3-methyl-but-2-enyl)-3,4,7,8,9,10-hexahydro-7,10-methano-2H-benzo[h]chromen-6-ol], the EC50 was at most 30 µM in test [1] and at most 1 µM in test [2].

With `CC(C)CCc1c(O)c2c(c3c1CCC(C)(C)O3)C1CCC2C1` (stereo not drawn) [2,2-Dimethyl-5-(3-methyl-butyl)-3,4,7,8,9,10-hexahydro-7,10-methano-2H-benzo[h]chromen-6-ol], the results for the EC50 in test [1] and in test [2] were at most 30 µM and at most 1 µM, respectively.

On to `CC1(C)CCc2cc(O)c3c(c2O1)C1CCC3CC1` [2,2-Dimethyl-3,4,7,8,9,10-hexahydro-7,10-ethano-2H-benzo[h]chromen-6-ol], for which, in test [1], the EC50 was at most 30 µM.

Turning to `CC1(CCCCl)CCc2cc(O)c3c(c2O1)C1CCC3C1` (stereo not drawn) [2-(3-Chloro-propyl)-2-methyl-3,4,7,8,9,10-hexahydro-7,10-methano-2H-benzo[h]chromen-6-ol], the EC50 was at most 30 µM in test [1] and at most 1 µM in test [2].

Regarding `CC1(CCCSc2nccs2)CCc2cc(O)c3c(c2O1)C1CCC3C1` (stereo not drawn) [2-Methyl-2-[3-(thiazol-2-ylsulfanyl)-propyl]-3,4,7,8,9,10-hexahydro-7,10-methano-2H-benzo[h]chromen-6-ol], the EC50 is at most 30 µM in test [1] and at most 1 µM in test [2].

Consider `CC1(C)C=Cc2cc(O)c3c(c2O1)C1CCC3CC1` [2,2-Dimethyl-7,8,9,10-tetrahydro-7,10-ethano-2H-benzo[h]chromen-6-ol], for which, in test [2], the EC50 was at most 1 µM.

The values are drawn from patent US7875607B2, “7,8-bicycloakyl-chroman derivatives” (Ampere Life Sciences, Inc., priority 2004, dated 2011).
